Assay results as given in patent publication US10308686B2, “Gamma-AApeptides with potent and broad-spectrum antimicrobial activity” (priority 2012, dated 2019).
In brackets after ≈: the same amount, converted by molar mass. Read-outs that look alike come from different tables or passages of the source.

Experiments:
[1] = tested on: human red blood cells (hRBC's); assay: Hemolysis assay; format: cell-based
Procedure: Freshly drawn human red blood cells (hRBC's) with additive K2 EDTA (spray-dried) were washed with PBS buffer several times and centrifuged at 1000 g for 10 min until a clear supernatant was observed. The hRBC's were resuspended in 1×PBS to get a 5% v/v suspension. Two-fold serial dilutions of γ-AApeptides dissolved in 1×PBS from 250 μg/ml through 1.6 μg/ml were added to a sterile 96-well plate to make up a total volume of 50 μL in each well. Then 50 μL of 5% v/v hRBC solution was added to make up a total volume of 100 μL in each well. The 0% hemolysis point and 100% hemolysis point were determined in 1×PBS and 0.2% Triton-X-100, respectively (Patch et al., 2003). The plate was then incubated at 37° C. for 1 h and centrifuged at 3500 rpm for 10 min. The supernatant (30 μL) was diluted with 100 μL of 1×PBS and absorption was detected by measuring the optical density at 360 nm by Biotek Synergy HT microtiter plate reader. % hemolysis was determined by the following equation: % hemolysis=(Abssample−AbsPBS)/(AbsTriton−AbsPBS)×100 H50 is the concentration of γ-AApeptide amphiphiles at which 50% hemolysis was observed. The highest concentration tested in the hemolytic assay was 500 μg/ml. 7. Fluorescence Microscopy
The sequences shown in FIG. 12 were also evaluated via hemolytic assays. Freshly drawn human red blood cells (hRBC's) with additive K2 EDTA (spray-dried) were washed with PBS buffer several times and centrifuged at 1000 g for 10 min until a clear supernatant was observed. The hRBC's were resuspended in 1×PBS to get a 5% v/v suspension. Two-fold serial dilutions of lipidated γ-AApeptides dissolved in 1×PBS from 1 mg/ml through 6.3 μg/ml were added to sterile 96-well plates to make up a total volume of 50 μL in each well. Then 50 μL of 5% v/v hRBC solution was added to make up a total volume of 100 μL in each well. The 0% hemolysis point and 100% hemolysis point were determined in 1×PBS and 0.2% Triton-X-100, respectively (Patch et al., 2003). The plate was then incubated at 37° C. for 1 h and centrifuged at 3500 rpm for 10 min. The supernatant (30 μL) was diluted with 100 μL of 1×PBS and absorption was detected by measuring the optical density at 360 nm with a Biotek Synergy HT microtiter plate reader. % hemolysis was determined by the following equation: % hemolysis=(Abs sample−Abs PBS)/(Abs Triton−Abs PBS)×100

[2] = tested on: methicillin-resistant S. aureus (ATCC 33592); conditions: for MIC, S. aureus (MRSA): Table 5
[3] = tested on: multi-drug resistant S. epidermidis (RP62A); conditions: for MIC, S. epidermidis (MRSE): Table 5
[4] = tested on: multi-drug resistant P. aeruginosa ATCC 27853
C. albicans (ATCC 10231) = conditions: ATCC 10231
[5] = tested on: K. pneumoniae (ATCC 13383)
[6] = tested on: vancomycin-resistant E. faecalis (ATCC 700802); conditions: for MIC, E. faecalis (VREF): Table 5

Row | Structure (SMILES) | Hemolysis H10 [1] [µg/mL] | Hemolysis H50 [1] [µg/mL] | MIC, S. aureus (MRSA) [2] [µg/mL] | MIC, S. epidermidis (MRSE) [3] [µg/mL] | MIC, P. aeruginosa ([4]; ATCC 27853) [µg/mL] | MIC, Fungus C. albicans (C. albicans (ATCC 10231)) [µg/mL] | MIC, K. pneumoniae [5] [µg/mL] | MIC, B. subtilis (B. subtilis (BR151)) [µg/mL] | MIC, E. faecalis (VREF) [6] [µg/mL] | MIC, S. aureus (methicillin-resistant) ([2]; Table 1) [µg/mL] | MIC, S. epidermidis (multi-drug resistant) ([3]; Table 1) [µg/mL] | MIC, K. pneumoniae (causing pneumonia) [5] [µg/mL] | MIC, E. faecalis (vancomycin-resistant) ([6]; Table 1) [µg/mL] | MIC, E. coli (E. coli (JM109)) [µg/mL] | also measured
1 | NCCCC[C@H]1CN(C(=O)CCc2ccccc2)CC(=O)N[C@@H](CCCCN)CN(C(=O)CCc2ccccc2)CC(=O)N[C@@H](CCCCN)CN(C(=O)CCc2ccccc2)CC(=O)N[C@@H](CCCCN)CN(C(=O)CCc2ccccc2)CC(=O)N[C@@H](CCCCN)CN(C(=O)CCc2ccccc2)CC(=O)N[C@@H](Cc2ccccc2)CN(CC(N)=O)C(=O)CCC(=O)N1 [HW-B-4] | > 500 | > 500 | > 50 | 10 (≈ 5.54 µM) | 20 (≈ 11.1 µM) | > 50 | > 50 | 10 (≈ 5.54 µM) | 20 (≈ 11.1 µM) |  |  |  |  |  | 
2 | NCCCC[C@H](N)CN(CC(=O)N[C@@H](CCCCN)CN(CC(=O)N[C@@H](CCCCN)CN(CC(N)=O)C(=O)CCc1ccccc1)C(=O)CCc1ccccc1)C(=O)CCc1ccccc1 [γ1] |  |  |  |  |  |  |  | >100 |  | >100 | >100 | >100 | >100 | >100 | 
3 | NCCCC[C@H](N)CN(CC(=O)N[C@@H](CCCCN)CN(CC(=O)N[C@@H](CCCCN)CN(CC(=O)N[C@@H](CCCCN)CN(CC(=O)N[C@@H](CCCCN)CN(CC(N)=O)C(=O)CCc1ccccc1)C(=O)CCc1ccccc1)C(=O)CCc1ccccc1)C(=O)CCc1ccccc1)C(=O)CCc1ccccc1 [γ2] |  |  |  |  |  |  |  | 5 (≈ 3.26 µM) |  | >100 | >100 | >100 | >100 | 25 (≈ 16.3 µM) | 
4 | CC(C)CCC(=O)N1CC(=O)N[C@@H](CCCCN)CN(C(=O)CCc2ccccc2)CC(=O)N[C@@H](CCCCN)CN(C(=O)CCc2ccccc2)CC(=O)N[C@@H](Cc2ccccc2)CN(CC(N)=O)C(=O)CCC(=O)N[C@@H](CCCCN)CN(C(=O)CCc2ccccc2)CC(=O)N[C@@H](CCCCN)CN(C(=O)CCc2ccccc2)CC(=O)N[C@@H](CCCCN)CN(C(=O)CCc2ccccc2)CC(=O)N[C@@H](Cc2ccccc2)C1 [γAA4] |  |  |  |  |  |  |  | 2 (≈ 0.955 µM) |  |  |  | >100 |  | 3.1 to 6.3 | Hemolysis (H50) ([1]; Table 3): >500 µg/mL; MIC, S. aureus (methicillin-resistant) ([2]; ATCC 33592): 3.1 to 6.3 µg/mL; MIC, S. epidermidis (multi-drug resistant) ([3]; multi-drug resistant (RP62A)): 2 µg/mL (≈ 0.955 µM); MIC, Fungi C. albicans (C. albicans (ATCC 10231)): 3 to 6 µg/mL; MIC, E. faecalis (vancomycin-resistant) ([6]; ATCC 700802): 12.5 to 25 µg/mL
5 | CC(C)CCC(=O)N1CC(=O)N[C@@H](CCCCN)CN(C(=O)CCc2ccccc2)CC(=O)N[C@@H](Cc2ccccc2)CN(CC(N)=O)C(=O)CCC(=O)N[C@@H](CCCCN)CN(C(=O)CCc2ccccc2)CC(=O)N[C@@H](Cc2ccccc2)CN(C(=O)CCC(C)C)CC(=O)N[C@@H](CCCCN)CN(C(=O)CCc2ccccc2)CC(=O)N[C@@H](CCCCN)CN(C(=O)CCc2ccccc2)CC(=O)N[C@@H](Cc2ccccc2)C1 [HW-B-12] | 150 | 450 | 6 (≈ 2.88 µM) | 5 (≈ 2.4 µM) | > 50 | 5 (≈ 2.4 µM) | 5 (≈ 2.4 µM) | 5 (≈ 2.4 µM) | 8 (≈ 3.85 µM) |  |  |  |  |  | 
6 | NCCCC[C@H]1CN(C(=O)CCc2ccccc2)CC(=O)N[C@@H](CCCCN)CN(C(=O)CCc2ccccc2)CC(=O)N[C@@H](CCCCN)CN(C(=O)CCc2ccccc2)CC(=O)N[C@@H](CCCCN)CN(C(=O)CCc2ccccc2)CC(=O)N[C@@H](Cc2ccccc2)CN(CC(N)=O)C(=O)CCC(=O)N1 [HW-B-3] |  |  | > 50 | > 50 |  | > 50 | > 50 | 25000 to 50000 | > 50 |  |  |  |  |  | Hemolysis H10 ([1]; Table 5, first value of H10/H50): > 500 µg/mL; Hemolysis H50 ([1]; Table 5, second value of H10/H50): > 500 µg/mL; MIC, P. aeruginosa ([4]; Table 5): > 50 µg/mL
